Results taken from patent US20230372542A1, “COMPOSITION AND METHODS FOR MODULATING TCF4 GENE EXPESSION AND TREATING PITT HOPKINS SYNDROME” (The Regents of the University of California, priority 2020, published 2023).

Assays:
NPCs = test: RT-qPCR gene expression in NPCs after Wnt signaling manipulation; type: cell-based, human
Protocol: Real time quantitative PCR. Total RNA was extracted using RNeasy Mini Plus kit (Qiagen), followed by DNase I treatment on the column, as per the manufacturer's recommendations. Two and a half micrograms of total RNA were reverse transcribed into cDNA using the Superscript III First-Strand Reverse Transcription System (Thermo Fisher Scientific). Real-time quantitative PCR (RT-qPCR) was performed using pre-validated FAM-MGB TaqMan probes (Thermo Fisher Scientific) and the TaqMan universal master mix II without UNG (Thermo Fisher Scientific) on a CFX Connect Real Time PCR detection system (Bio-Rad), with the following cycling parameters: 94° C. for 3 min, followed by 40 cycles of 94° C. for 30 s and 68° C. for 1 min. Amplification and denaturation curves for all probes were analyzed to verify amplification of just one amplicon. All RT-qPCR analyses were conducted using RNA extracted from at least 3 independent biological samples per subject/condition, and normalized to the following endogenous control genes (TBP, ACTB, and GAPDH). Relative expression was calculated using the traditional ΔΔCt method.
Wnt signaling manipulation. For manipulating the Wnt/β-catenin signaling pathway in NPCs, 200,000 cells were seeded on a 6-well plate, followed by treatment with specific agonist CHIR99021 (1 μM) for 4 days. Controls were treated with DMSO (CHIR diluent) at the same concentration and for the same duration. […] In all cases, treated cells were assayed to measure activity of the Wnt pathway via transfection with the TOP-Flash plasmids described herein.

[1] = tested on: Wnt/β-catenin signaling pathway; test: TOP-Flash luciferase reporter Wnt functional assay in NPCs; type: cell-based, human; conditions: PTHS NPCs; CHIR99021 (FIG. 16D)
From the text: TOP-Flash luciferase reporter Wnt functional assay. For assessing levels of Wnt signaling, 70% confluent cultures of NPCs in 24-well plates (with Neural Progenitor Medium from StemCell Technologies) were transfected with the M50 Super 8×TOPFlash plasmid (Addgene #12456; [http:/]/n2t.net/addgene:12456; RRID:Addgene_12456; referred to as TOP-Flash luciferase reporter plasmid), which is used to assess β-catenin-mediated transcriptional activation. This plasmid contains a minimal TA viral promoter driving the expression of a firefly luciferase gene preceded by seven binding sites ([…]; SEQ ID NO:1) for TCF/LEF (Veeman et al., 2003), not to be confused with TCF4. Control NPCs were transfected with M51 Super8×TOPflash plasmids, which have mutant TCF/LEF binding sites (Addgene plasmid #12457; [http:/]/n2t.net/addgene:12457; RRID:Addgene_12457).
Transfection was performed using the Amaxa Nucleofaction Mouse Neural Stem Cell Nucleofector kit for NPCs (Lonza), using the manufacturer's recommendations. After 24 h, medium was replenished and the luciferase assay was performed using the Pierce Firefly Luciferase Flash Assay Kit (Thermo Fisher Scientific) on a sample of 50,000 cells, using a Synergy microplate reader (BioTek Instruments). […] Activity levels were expressed as arbitrary units normalized against the mean activity in the respective controls. […]

[2] = PTHS NPCs in 2D culture, CHIR (FIG. 16K)

## Cc1c[nH]c(-c2cnc(NCCNc3ccc(C#N)cn3)nc2-c2ccc(Cl)cc2Cl)n1 [CHIR99021]
NPCs; NPCs, CHIR99021 (FIG. 16N)
  PCDH15 expression: further reduces its expression
NPCs; [2]
  expression of TCF4: increased
  expression of TCF4 downstream targets (GADD45G): increased
NPCs; PTHS NPCs, CHIR99021 (FIG. 9J)
  expression of pro-proliferative gene HES1: increased the expression
  expression of proneural gene ASCL1: increased the expression
  expression of proneural gene NEUROD1: increased the expression
NPCs; PTHS progenitors, CHIR99021 (FIG. 10F)
  SOX3 expression: increased SOX3 expression
[1]
  Wnt signaling activity (TOP-Flash): increased
